Values after ≈ are worked out from the molar mass of the structure shown.
Legend:
[1] = tested on: adenylyl cyclase (HEK293 cells stably expressing IP receptor); test: cAMP assay, HEK293 cells with IP receptor; type: cell-based, human; conditions: 30 μM forskolin in DMSO, 100 μM 7-DAFSK in water or as PVP K12 complex in water, with 30 μM treprostinil, treprostinil alone = control, 30 min, room temperature
Method: (§1) A cAMP assay was performed using HEK293 cells (human embryonic kidney cells, 1970) with the prostaglandin receptors EP2 or EP4, or the prostacyclin receptor IP. HEK293 cells were incubated with FCS and a radioligand ([^3H] adenine). The formation of cAMP ([^3H] cAMP) was monitored experimentally.
(§2) Day 1: HEK293 cells stably expressing either EP2, EP4, or IP receptors were grown on a 6-well plate in 2 mL DMEM medium containing 10% FCS and 2 μCi [^3H]-adenine and incubated for 16 hours.
(§3) Day 2: Cells were stimulated with 30 μM treprostinil alone or in combination with […] forskolin in DMSO, 100 μM 7-DAFSK in water, or 100 μM 7-DAFSK in 7-DAFSK-PVP K12 complex in water (in fresh medium for 30 minutes at room temperature). Cells were then lysed with 2.5% perchloric acid (PCA) for 30 minutes on ice. The PCA extract was neutralized with KOH and [^3H]cAMP was separated by sequential chromatography using DOWEX and alumina columns. Radioactivity was then measured using a scintillator.
(§4) An aliquot of PCA extract from each well was used to measure radioactivity.

[2] = tested on: adenylyl cyclase (HEK293 cells stably expressing EP2 receptor); test: cAMP assay, HEK293 cells with EP2 receptor; type: cell-based, human; conditions: 30 μM forskolin in DMSO, 100 μM 7-DAFSK in water or as PVP K12 complex in water, with 30 μM treprostinil, treprostinil alone = control, 30 min, room temperature
Method: as §1, §2, §3, §4

[3] = literature/background value; cited from earlier work
[4] = Determination of water solubility (excess complex in water, filtration, HPLC); type: physicochemical; conditions: content of active in filtrate by HPLC
Method: For the solubility tests, the respective complex dried by means of rotary evaporator was used. A defined amount of water is added and then complex is added until an excess of 7-DAFSK-PVP is present. The supersaturated solution is sonicated, stirred and slightly heated (water bath 40° C.). The suspension is then filtered (0.45 μm filter) and the content of 7-DAFSK in the filtrate is determined by HPLC.

[5] = Amount going into solution in 6 mL H2O after the preparation procedure (0.45 μm filtration, HPLC); type: physicochemical; conditions: control sample without PVP12, heating method, 20 mg 7-DAFSK
Method: For the complexation of 7-deacetyl-forskolin with PVP K12 (“Kollidon” 12 PF, Ph. Eur., USP, JP; BASF, average molar mass: about 2.5 kD), 20 mg of 7-DAFSK and 20 mg of PVP K12 were triturated in a porcelain crucible and 300 μL of ethanol was added and stirred. After 10 min, 100 μL of H2O was added, stirred, and allowed to stand again for 10 min. The solution was then heated to 140° C. in a drying oven within 40 min and left in it for a total of 45 min. After cooling, 3 mL of H2O was added and stirring was performed for 20-30 min. Then, the suspension was taken up with a syringe and filtered through 0.45 μm filter (hydrophilic). The crucible was rewashed with 3 mL H2O and the wash solution was also filtered through the filter. The content of 7-DAFSK dissolved in the 6 mL H2O was determined by HPLC. For the determination, the 7-DAFSK-PVP complex solution was diluted 1:10 with running medium. A mass fraction of 7-DAFSK in the total complex of 35 wt % was determined.
To optimize the content of 7-DAFSK in the total complex, the weight ratios of 7-DAFSK and PVP K12 used were varied (FIG. 3). […]
20 mg FSK and 40 mg PVP 25 were triturated in a porcelain crucible and 300 μL ethanol (alternatively propanol) was added and stirred. […] The content of FSK dissolved in the 6 mL H2O was determined by HPLC. A mass fraction of FSK in the total complex of <0.01 wt % was determined.

[6] = tested on: adenylyl cyclase (HEK293 cells stably expressing EP4 receptor); test: cAMP assay, HEK293 cells with EP4 receptor; type: cell-based, human; conditions: 30 μM forskolin in DMSO, 100 μM 7-DAFSK in water or as PVP K12 complex in water, with 30 μM treprostinil, treprostinil alone = control, 30 min, room temperature
Method: as §1, §2, §3, §4

water solubility [4] | proportion of the 7-DAFSK used brought into solution [5] | solubility ([4]; 40 °C, thermodynamic from solid) | SMILES | activation of adenylyl cyclase ([3H]cAMP formation) [1] | activation of adenylyl cyclase ([3H]cAMP formation) [2] | solubility in water [3] | activation of adenylyl cyclase ([3H]cAMP formation) [6]
1000 µg/mL (≈ 2710 µM) | less than a quarter | – | C=C[C@@]1(C)CC(=O)[C@]2(O)[C@@]3(C)[C@@H](O)CCC(C)(C)[C@@H]3[C@H](O)[C@H](O)[C@@]2(C)O1 [7-DAFSK, 7-deacetyl-forskolin] | enhanced activity | enhanced activity | up to 1 mg/mL | enhanced activity
– | – | 10 µg/mL (≈ 24.4 µM) | C=C[C@@]1(C)CC(=O)[C@]2(O)[C@@]3(C)[C@@H](O)CCC(C)(C)[C@@H]3[C@H](O)[C@H](OC(C)=O)[C@@]2(C)O1 [FSK, forskolin] | – | – | 10 µg/mL (≈ 24.4 µM) | –
– | – | – | CCCCC[C@H](O)CC[C@@H]1[C@H]2Cc3cccc(OCC(=O)O)c3C[C@H]2C[C@H]1O [Treprostinil, treprostinil] | no activation of AC | no activation of AC | – | no activation of AC
